The numbers were not newly measured in PubChem BioAssay AID1259409 (Chemical Carcinogenesis Research Information System (CCRIS), 2018), which cites them from elsewhere.

The test system of this data set is rodent chemically induced tumor inhibition, incidence and multiplicity. The experiment in a line: CCRIS tumor inhibitor studies.

SMILES strings stand for the structures.

Take `CC(C)c1cc(C(=O)O)c([O-])c(C(C)C)c1.CC(C)c1cc(C(=O)O)c([O-])c(C(C)C)c1.[Cu+2]`: the “tumour outcome (control, treated, inhibition, significance)” value is on record as 100%, 100%, 0%, not significant (Carcinogen: 7,12-DIMETHYLBENZ[A]ANTHRACENE, 57-97-6, Dose [Inhibitor]: 500 NMOL IN 0.2 ML ACETONE APPLIED ONCE TO DORSAL SKIN 15 MIN PRIOR TO CARCINOGEN DOSE (STUDY DURATION: 20 WK), Route [Inhibitor]: DERMAL, Species: MOUSE, Strain/Sex: SENCAR/FEMALE, Target Tissue: Type of Lesion: SKIN: PAPILLOMA, Dose [Carcinogen]: 10 NMOL IN 0.2 ML ACETONE ONCE); 100%, 100%, 0%, not significant (Carcinogen: 7,12-DIMETHYLBENZ[A]ANTHRACENE, 57-97-6, Dose [Inhibitor]: 1000 NMOL IN 0.2 ML ACETONE APPLIED ONCE TO DORSAL SKIN 15 MIN PRIOR TO CARCINOGEN DOSE (STUDY DURATION: 20 WK), Route [Inhibitor]: DERMAL, Species: MOUSE, Strain/Sex: SENCAR/FEMALE, Target Tissue: Type of Lesion: SKIN: PAPILLOMA, Dose [Carcinogen]: 10 NMOL IN 0.2 ML ACETONE ONCE); 100%, 100%, 0%, not significant (Carcinogen: 7,12-DIMETHYLBENZ[A]ANTHRACENE, 57-97-6, Dose [Inhibitor]: 2000 NMOL IN 0.2 ML ACETONE APPLIED ONCE TO DORSAL SKIN 15 MIN PRIOR TO CARCINOGEN DOSE (STUDY DURATION: 20 WK), Route [Inhibitor]: DERMAL, Species: MOUSE, Strain/Sex: SENCAR/FEMALE, Target Tissue: Type of Lesion: SKIN: PAPILLOMA, Dose [Carcinogen]: 10 NMOL IN 0.2 ML ACETONE ONCE); 97%, 93%, 4%, not calculated (Carcinogen: BENZO[A]PYRENE, 50-32-8, Dose [Inhibitor]: 100 NMOL IN 0.2 ML ACETONE APPLIED ONCE TO DORSAL SKIN 15 MIN PRIOR TO CARCINOGEN DOSE (STUDY DURATION: 20 WK), Route [Inhibitor]: DERMAL, Species: MOUSE, Strain/Sex: SENCAR/FEMALE, Target Tissue: Type of Lesion: SKIN: PAPILLOMA, Dose [Carcinogen]: 200 NMOL IN 0.2 ML ACETONE ONCE); 97%, 93%, 4%, not calculated (Carcinogen: BENZO[A]PYRENE, 50-32-8, Dose [Inhibitor]: 500 NMOL IN 0.2 ML ACETONE APPLIED ONCE TO DORSAL SKIN 15 MIN PRIOR TO CARCINOGEN DOSE (STUDY DURATION: 20 WK), Route [Inhibitor]: DERMAL, Species: MOUSE, Strain/Sex: SENCAR/FEMALE, Target Tissue: Type of Lesion: SKIN: PAPILLOMA, Dose [Carcinogen]: 200 NMOL IN 0.2 ML ACETONE ONCE); 97%, 100%, -3%, not calculated (Carcinogen: BENZO[A]PYRENE, 50-32-8, Dose [Inhibitor]: 1000 NMOL IN 0.2 ML ACETONE APPLIED ONCE TO DORSAL SKIN 15 MIN PRIOR TO CARCINOGEN DOSE (STUDY DURATION: 20 WK), Route [Inhibitor]: DERMAL, Species: MOUSE, Strain/Sex: SENCAR/FEMALE, Target Tissue: Type of Lesion: SKIN: PAPILLOMA, Dose [Carcinogen]: 200 NMOL IN 0.2 ML ACETONE ONCE). Further, the “tumour outcome (control, treated, inhibition, significance)” value runs as follows: (Carcinogen: BENZO[A]PYRENE, 50-32-8, Dose [Inhibitor]: 2000 NMOL IN 0.2 ML ACETONE APPLIED ONCE TO DORSAL SKIN 15 MIN PRIOR TO CARCINOGEN DOSE (STUDY DURATION: 20 WK), Route [Inhibitor]: DERMAL, Species: MOUSE, Strain/Sex: SENCAR/FEMALE, Target Tissue: Type of Lesion: SKIN: PAPILLOMA, Dose [Carcinogen]: 200 NMOL IN 0.2 ML ACETONE ONCE) 97%, 90%, 7%, not calculated; (Carcinogen: BENZO[A]PYRENE, 50-32-8, Dose [Inhibitor]: 4000 NMOL IN 0.2 ML ACETONE APPLIED ONCE TO DORSAL SKIN 15 MIN PRIOR TO CARCINOGEN DOSE (STUDY DURATION: 20 WK), Route [Inhibitor]: DERMAL, Species: MOUSE, Strain/Sex: SENCAR/FEMALE, Target Tissue: Type of Lesion: SKIN: PAPILLOMA, Dose [Carcinogen]: 200 NMOL IN 0.2 ML ACETONE ONCE) 97%, 96%, 0.3%, not calculated.
Consider `CO[C@@H]1[C@H](OC(=O)NC(=O)CCl)CC[C@]2(CO2)[C@H]1[C@@]1(C)O[C@@H]1CC=C(C)C`, for which the “tumour outcome (control, treated, inhibition, significance)” value is, setting by setting: (Carcinogen: N-METHYL-N-NITROSOUREA, 684-93-5, Dose [Inhibitor]: 0, 1 UG/ML IN URINE 1/WK FOR 10 WK INSTILLED INTO HETEROTROPICALLY TRANSPLANTED BLADDER BEGINNING 21 WK POST CARCINOGEN, Route [Inhibitor]: INTRAVESICULAR, Species: RAT, Strain/Sex: F344/MALE, Target Tissue: Type of Lesion: BLADDER: TUMOR, Dose [Carcinogen]: 0.25 MG IN 0.5 ML OF 0.9% SALINE INSTILLED INTO HETEROTROPICALLY TRANSPLANTED BLADDER ONCE, Promoter: NONE USED) 24/38 (63%), 9/24 (38%), 40%, p=0.08; (Carcinogen: N-METHYL-N-NITROSOUREA, 684-93-5, Dose [Inhibitor]: 0, 1 UG/ML IN URINE 1/WK FOR 27 WK INSTILLED INTO HETEROTROPICALLY TRANSPLANTED BLADDER BEGINNING 4 WK POST CARCINOGEN D, Route [Inhibitor]: INTRAVESICULAR, Species: RAT, Strain/Sex: F344/MALE, Target Tissue: Type of Lesion: BLADDER: TUMOR, Dose [Carcinogen]: 0.25 MG IN 0.5 ML OF 0.9% SALINE INSTILLED INTO HETEROTROPICALLY TRANSPLANTED BLADDER ONCE, Promoter: NONE USED) 24/38 (63%), 14/37 (38%), 40%, p<0.05.
On to `CCC1(c2ccc(N)cc2)CCC(=O)NC1=O` (stereo unspecified), for which, where the note is “Carcinogen: N-METHYL-N-NITROSOUREA, 684-93-5, Dose [Inhibitor]: 0, 400 MG/KG IN DIET FOR THE DURATION OF STUDY BEGINNING 7 D PRIOR TO CARCINOGEN DOSE (STUDY DURATION: 187 D), Route [Inhibitor]: ORAL, Species: RAT, Strain/Sex: SPRAGUE-DAWLEY/FEMALE, Target Tissue: Type of Lesion: MAMMARY GLAND: TUMOR, Dose [Carcinogen]: 50 MG/KG BW ONCE, Promoter: NONE USED”, the “tumour outcome (control, treated, inhibition, significance)” value is listed as 100%, 100%, 0%, not significant.
`Oc1ccc(O)cc1`: the “tumour outcome (control, treated, inhibition, significance)” value by setting is: (Carcinogen: BENZO[A]PYRENE, 50-32-8, Dose [Inhibitor]: 5 MG IN 0.1 ML ACETONE 3/WK ADMINISTERED SIMULTANEOUSLY WITH CARCINOGEN FOR DURATION OF STUDY (STUDY DURATION: 368 D), Route [Inhibitor]: DERMAL, Species: MOUSE, Strain/Sex: ICR/FEMALE, Target Tissue: Type of Lesion: SKIN: PAPILLOMA, Dose [Carcinogen]: 5 UG IN 0.1 ML ACETONE 3/WK FOR DURATION OF STUDY, Promoter: NONE USED) 14/50 (28%), 7/50 (14%), 50%, not calculated; (Carcinogen: BENZO[A]PYRENE, 50-32-8, Dose [Inhibitor]: 5 MG IN 0.1 ML ACETONE 3/WK ADMINISTERED SIMULTANEOUSLY WITH CARCINOGEN FOR DURATION OF STUDY (STUDY DURATION: 368 D), Route [Inhibitor]: DERMAL, Species: MOUSE, Strain/Sex: ICR/FEMALE, Target Tissue: Type of Lesion: SKIN: SQUAMOUS CARCINOMA, Dose [Carcinogen]: 5 UG IN 0.1 ML ACETONE 3/WK FOR DURATION OF STUDY, Promoter: NONE USED) 10/50 (20%), 3/50 (6%), 70%, not calculated; (Carcinogen: N-ETHYL-N-HYDROXYETHYLNITROSAMINE, 13147-25-6, Dose [Inhibitor]: 0, 0.8% IN DIET FOR 36 WK BEGINNING 1 WK POST CARCINOGEN TREATMENT (STUDY DURATION: 40 WK), Route [Inhibitor]: ORAL, Species: RAT, Strain/Sex: WISTAR/MALE, Target Tissue: Type of Lesion: LIVER: HEPATOCELLULAR ADENOMA, Dose [Carcinogen]: 0.1% IN DRINKING WATER FOR 3 WK, Promoter: NONE USED) 10/17 (59%), 11/18 (61%), -3%, not significant; (Carcinogen: N-ETHYL-N-HYDROXYETHYLNITROSAMINE, 13147-25-6, Dose [Inhibitor]: 0, 0.8% IN DIET FOR 36 WK BEGINNING 1 WK POST CARCINOGEN TREATMENT (STUDY DURATION: 40 WK), Route [Inhibitor]: ORAL, Species: RAT, Strain/Sex: WISTAR/MALE, Target Tissue: Type of Lesion: LIVER: HEPATOCELLULAR CARCINOMA, Dose [Carcinogen]: 0.1% IN DRINKING WATER FOR 3 WK, Promoter: NONE USED) 7/17 (41%), 3/18 (17%), 56%, not significant.
For `O=C1N[C@H](C(=O)O)CS1`, for the setting “Carcinogen: DIETHYLNITROSAMINE, 55-18-5, Dose [Inhibitor]: 0, 600 MG/KG BW BY INTRAPERITONEAL INJECTION ON DAYS 13, 14 AND 15 OF AGE THEN 4 G/KG DIET FROM 21 TO 161 DAYS OF AGE (S, Route [Inhibitor]: INTRAPERITONEAL, ORAL, Species: MOUSE, Strain/Sex: C3H/MALE, Target Tissue: Type of Lesion: LIVER: ADENOMA, Dose [Carcinogen]: 4 MG/KG IN TRICAPRYLIN ONCE ON DAY 15 OF AGE, Promoter: NONE USED”, the “tumour outcome (control, treated, inhibition, significance)” value is listed as 100%, 100%, 0%, not significant.
